No end group written: not given here. A value given as a limit tells only on which side of the number the result lay.

Assay [1] has as its system PBMC from HCV-infected patients. Briefly: CTL recall: recognition in vitro by PBMC from HCV-infected patients, 51Cr release. Format: cell-based, human.
For assay [2], the target named is HLA-B*5301 (Homo sapiens, UniProt P01889, A329T/A93T/A95T/C349S/D201E/D98Y/E176V/E187L/E204Q/E69T/G107R/I218V/K202T/L105A/L119I/N104I/Q94N/R106L/R155S/R180L/S101N/S121R/S35A/S48A/T118I/V127L/V306I/V36M/Y140S/Y91F). Put plainly: HLA class I binding assay, B*5301.
Assay [3] deals with HLA-B*3501 (Homo sapiens, UniProt P01889, A329T/A93T/A95T/C349S/D201E/D98Y/E176V/E187L/E204Q/E69T/I218V/K202T/L119I/Q94N/R155S/R180L/S121R/S35A/S48A/T118I/V127L/V306I/V36M/Y140S/Y91F). Briefly: HLA class I binding assay, B*3501.
Assay [4] addresses T1, DRB1*0301 (DR3) (Homo sapiens, UniProt P01903+P01911, A100K/A102G/A103R/A169T/F55Y/I96L/K41T/L162R/M171V/P40S/Q125H/Q178H/Q39Y/R42S/S66N/T106N/T262R/W38E/Y61H).
T1 construct: endogenous in cells; host or cells: MAT
Put plainly: HLA class II binding assay, DRB1*0301 (DR3). Particulars: DR3 binding affinity, DR3 motif peptides.

Setting [5] is: A3-supertype binders, positive responses over total number examined.
[6] abbreviates: A3-supertype binders, positive responses over total number of contacts examined.
Setting [7] is: A3-supertype binders, positive responses over total number of patients examined.
Setting [8] is: A3-supertype binders, sum over all groups, positive over total examined.
Where [9] appears, read: sum over the four human data sets.

In the case of `CC[C@H](C)[C@H](NC(=O)[C@@H](N)CC(C)C)C(=O)N[C@@H](Cc1ccccc1)C(=O)N[C@@H](CS)C(=O)N[C@@H](Cc1c[nH]cn1)C(=O)N[C@@H](CO)C(=O)N[C@@H](CCCCN)C(=O)N[C@@H](CCCCN)C(=O)N[C@@H](CCCCN)C(=O)O` [Peptide 1.0123], the “Immunogenicity Human, Chisari” value in assay [1] (setting [5]) and in assay [1] (responders/tested) was 4/12 in each case. The “Immunogenicity Human, Pape” value in assay [1] (setting [5]) and in assay [1] (responders/tested) was 2/6 each time. Further, the “Immunogenicity Human, Barnaba; contacts” value in assay [1] (setting [6]) is reported as 1/4; in assay [1] (responders/tested, contacts) it was 1/4. For the same molecule, the “Immunogenicity Human, Barnaba; patients” value in assay [1] (setting [7]) and in assay [1] (responders/tested) was 6/16 in each case. The “Immunogenicity Human, overall” value in assay [1] (setting [8]) and in assay [1] (setting [9]) was 13/38 in each case.
As for `CC(C)C[C@H](NC(=O)[C@H](C)NC(=O)CNC(=O)[C@H](C)NC(=O)[C@@H](N)C(C)C)C(=O)N[C@H](C(=O)N[C@@H](C)C(=O)N[C@@H](Cc1ccccc1)C(=O)N[C@@H](CCCCN)C(=O)O)C(C)C` [Peptide 24.0090], the “Immunogenicity Human, Chisari” value in assay [1] (setting [5]) and in assay [1] (responders/tested) was 6/12 throughout. The “Immunogenicity Human, Pape” value in assay [1] (setting [5]) and in assay [1] (responders/tested) was 0/4 in each case. In addition, the “Immunogenicity Human, Barnaba; contacts” value in assay [1] (setting [6]) was 1/4; in assay [1] (responders/tested, contacts), 1/4. The “Immunogenicity Human, Barnaba; patients” value in assay [1] (setting [7]) and in assay [1] (responders/tested) was 4/16 each time. In addition, the “Immunogenicity Human, overall” value in assay [1] (setting [8]) and in assay [1] (setting [9]) was 11/38 in each case.
The term IC50 denotes the concentration needed to halve the response being measured. Take `CC[C@H](C)[C@H](NC(=O)[C@H](CC(C)C)NC(=O)[C@H](CCCNC(=N)N)NC(=O)[C@H](C)NC(=O)[C@@H]1CCCN1C(=O)[C@@H](N)CCCCN)C(=O)N[C@H](C(=O)N[C@@H](Cc1ccccc1)C(=O)O)C(C)C` [Peptide 29.0037]: the IC50 in assay [2] and in assay [3] was more than 30 µM in each case.
With `C[C@@H](O)[C@H](NC(=O)[C@@H](N)CCCCN)C(=O)N[C@@H](CO)C(=O)N[C@@H](CCC(=O)O)C(=O)N[C@@H](CCCNC(=N)N)C(=O)N[C@@H](CO)C(=O)N[C@@H](CCC(N)=O)C(=O)N1CCC[C@H]1C(=O)N[C@@H](CCCNC(=N)N)C(=O)O` [Peptide 1.0952], the “Immunogenicity Human, Chisari” value in assay [1] (setting [5]) and in assay [1] (responders/tested) was 3/12 each time. Also, the “Immunogenicity Human, Pape” value in assay [1] (setting [5]) and in assay [1] (responders/tested) was 0/6 each time. In addition, the “Immunogenicity Human, Barnaba; contacts” value is listed as 1/4 in assay [1] (setting [6]) and 1/4 in assay [1] (responders/tested, contacts). For the same molecule, the “Immunogenicity Human, Barnaba; patients” value in assay [1] (setting [7]) and in assay [1] (responders/tested) was 2/16 throughout. Besides, the “Immunogenicity Human, overall” value in assay [1] (setting [8]) and in assay [1] (setting [9]) was 6/38 throughout.
Take `CC(C)C[C@H](NC(=O)[C@@H](N)CCCNC(=N)N)C(=O)NCC(=O)N[C@H](C(=O)N[C@@H](CCCNC(=N)N)C(=O)N[C@@H](C)C(=O)N[C@H](C(=O)N[C@@H](CCCNC(=N)N)C(=O)N[C@@H](CCCCN)C(=O)O)[C@@H](C)O)C(C)C` [Peptide 1073.11]: the “Immunogenicity Human, Chisari” value in assay [1] (setting [5]) and in assay [1] (responders/tested) was 7/12 in each case. The “Immunogenicity Human, Pape” value in assay [1] (setting [5]) and in assay [1] (responders/tested) was 1/6 throughout. For the same molecule, the “Immunogenicity Human, Barnaba; contacts” value in assay [1] (setting [6]) is 1/4; in assay [1] (responders/tested, contacts) it was 1/4. In addition, the “Immunogenicity Human, Barnaba; patients” value in assay [1] (setting [7]) and in assay [1] (responders/tested) was 4/16 each time. Besides, the “Immunogenicity Human, overall” value in assay [1] (setting [8]) and in assay [1] (setting [9]) was 13/38 each time.
With `CC[C@H](C)[C@H](NC(=O)[C@H](Cc1ccc(O)cc1)NC(=O)[C@@H]1CCCN1C(=O)[C@@H](N)CC(C)C)C(=O)N[C@@H](CCC(=O)O)C(=O)N[C@@H](CCC(N)=O)C(=O)NCC(=O)N[C@@H](CCSC)C(=O)O` [Peptide 29.0042], the IC50 in assay [2] and in assay [3] was more than 30 µM each time.
For `CSCC[C@H](NC(=O)[C@H](CCCNC(=N)N)NC(=O)[C@H](C)NC(=O)[C@H](Cc1c[nH]c2ccccc12)NC(=O)[C@H](CC(C)C)NC(=O)[C@@H](NC(=O)[C@@H]1CCCN1C(=O)[C@H](C)N)[C@@H](C)O)C(=O)O` [Peptide 29.0031], the IC50 in assay [2] and in assay [3] was more than 30 µM in each case.
On to `CSCC[C@H](NC(=O)[C@@H](N)CCCNC(=N)N)C(=O)N[C@@H](Cc1ccc(O)cc1)C(=O)N[C@H](C(=O)NCC(=O)NCC(=O)N[C@H](C(=O)N[C@@H](CCC(=O)O)C(=O)N[C@@H](Cc1c[nH]cn1)C(=O)N[C@@H](CCCNC(=N)N)C(=O)O)C(C)C)C(C)C` [Peptide 1073.13], for which the “Immunogenicity Human, Chisari” value in assay [1] (setting [5]) and in assay [1] (responders/tested) was 4/12 each time. Besides, the “Immunogenicity Human, Pape” value in assay [1] (setting [5]) and in assay [1] (responders/tested) was 1/6 throughout. For the same molecule, the “Immunogenicity Human, Barnaba; contacts” value in assay [1] (setting [6]) was 1/4; in assay [1] (responders/tested, contacts), 1/4. In addition, the “Immunogenicity Human, Barnaba; patients” value in assay [1] (setting [7]) and in assay [1] (responders/tested) was 5/16 in each case. The “Immunogenicity Human, overall” value in assay [1] (setting [8]) and in assay [1] (setting [9]) was 11/38 in each case.
`CC(C)C[C@H](NC(=O)[C@H](CCCNC(=N)N)NC(=O)[C@@H]1CCCN1C(=O)CNC(=O)[C@H](CCCNC(=N)N)NC(=O)[C@H](CCCNC(=N)N)NC(=O)[C@@H]1CCCN1C(=O)[C@@H](N)CC(C)C)C(=O)O` [Peptide 29.0040]: the IC50 in assay [2] and in assay [3] was more than 30 µM in each case.
`CC[C@H](C)[C@H](NC(=O)[C@H](CCSC)NC(=O)[C@H](CCCNC(=N)N)NC(=O)[C@H](C)NC(=O)[C@H](Cc1c[nH]c2ccccc12)NC(=O)[C@H](CC(C)C)NC(=O)[C@@H](NC(=O)[C@@H]1CCCN1C(=O)[C@H](C)N)[C@@H](C)O)C(=O)N[C@@H](CC(C)C)C(=O)N[C@@H](CCSC)C(=O)O` [Peptide 29.0118]: the IC50 in assay [2] and in assay [3] was more than 30 µM in each case.
In the case of `CC(C)C[C@H](NC(=O)[C@H](C)NC(=O)CNC(=O)[C@H](C)NC(=O)[C@@H](NC(=O)CN)C(C)C)C(=O)N[C@H](C(=O)N[C@@H](C)C(=O)N[C@@H](Cc1ccccc1)C(=O)N[C@@H](CCCCN)C(=O)O)C(C)C` [Peptide 1073.10], the “Immunogenicity Human, Chisari” value in assay [1] (setting [5]) and in assay [1] (responders/tested) was 6/12 in each case. Besides, the “Immunogenicity Human, Pape” value in assay [1] (setting [5]) and in assay [1] (responders/tested) was 2/6 each time. Besides, the “Immunogenicity Human, Barnaba; contacts” value is listed as 0/4 in assay [1] (setting [6]) and 0/4 in assay [1] (responders/tested, contacts). Besides, the “Immunogenicity Human, Barnaba; patients” value in assay [1] (setting [7]) and in assay [1] (responders/tested) was 3/16 throughout. In addition, the “Immunogenicity Human, overall” value in assay [1] (setting [8]) and in assay [1] (setting [9]) was 11/38 in each case.
With `CSCC[C@H](NC(=O)[C@H](CC(C)C)NC(=O)[C@H](C)NC(=O)[C@H](CC(=O)O)NC(=O)[C@@H](NC(=O)[C@H](C)NC(=O)[C@@H](NC(=O)[C@@H](NC(=O)[C@@H](NC(=O)[C@@H](N)C(C)C)C(C)C)C(C)C)C(C)C)[C@@H](C)O)C(=O)N[C@H](C(=O)NCC(=O)N[C@@H](Cc1ccc(O)cc1)C(=O)N[C@H](C(=O)NCC(=O)O)[C@@H](C)O)[C@@H](C)O` [CH35.0106], the IC50 in assay [4] is not above 1 µM.
For the molecule `CC(C)C[C@H](NC(=O)[C@@H](N)CCC(N)=O)C(=O)N[C@@H](Cc1ccccc1)C(=O)N[C@H](C(=O)N[C@@H](Cc1ccccc1)C(=O)N[C@@H](CO)C(=O)N1CCC[C@H]1C(=O)N[C@@H](CCCNC(=N)N)C(=O)N[C@@H](CCCNC(=N)N)C(=O)O)[C@@H](C)O` [Peptide 1.0955], the “Immunogenicity Human, Chisari” value in assay [1] (setting [5]) and in assay [1] (responders/tested) was 6/12 each time. In addition, the “Immunogenicity Human, Pape” value in assay [1] (setting [5]) and in assay [1] (responders/tested) was 1/6 in each case. Further, the “Immunogenicity Human, Barnaba; contacts” value in assay [1] (setting [6]) is on record as 0/4; in assay [1] (responders/tested, contacts), 0/4. For the same molecule, the “Immunogenicity Human, Barnaba; patients” value in assay [1] (setting [7]) and in assay [1] (responders/tested) was 1/16 each time. Further, the “Immunogenicity Human, overall” value in assay [1] (setting [8]) and in assay [1] (setting [9]) was 8/38 in each case.
FPGCSFSIF [Peptide 1145.13] returned an IC50 in assay [2] of 0.0032 µM.
As for `CC[C@H](C)[C@H](N)C(=O)N1CCC[C@H]1C(=O)N[C@@H](Cc1ccccc1)C(=O)N[C@@H](Cc1ccc(O)cc1)C(=O)NCC(=O)N[C@@H](CCCCN)C(=O)N[C@@H](C)C(=O)N[C@H](C(=O)O)[C@@H](C)CC` [29.0035/1260.04], the IC50 in assay [2] and in assay [3] was more than 30 µM in each case.

The record behind these values is patent US20090304746A1 (priority 1993, published 2009).
